Results as given in ChEMBL document CHEMBL1201862, “PubChem BioAssay data set” (2004).
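How tested: cells in 96-well plates exposed to compound for 48 hours at five concentrations. At the GI50, growth is halved.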 The source made the active and inactive calls. Cut-off read from the data, not from the text of the source: active = GI50 up to about 1.1 µM and inactive = higher.

How the values were obtained:
Test in all cases: inhibition of tumour cell growth, NCI panel, 48 h
TK-10 = system: TK-10
SNB-19 = system: SNB-19
NCI-H226 = system: NCI-H226
HCT-116 = system: HCT-116
OVCAR-5 = system: OVCAR-5
HOP-62 = system: HOP-62
ACHN = system: ACHN
UO-31 = system: UO-31
SF-295 = system: SF-295
MOLT-4 = system: MOLT-4
SW-620 = system: SW-620
LOX IMVI = system: LOX IMVI
OVCAR-4 = system: OVCAR-4
HCC 2998 = system: HCC 2998
EKVX = system: EKVX
RPMI-8226 = system: RPMI-8226
SK-MEL-2 = system: SK-MEL-2
HOP-92 = system: HOP-92
SR = system: SR
CAKI-1 = system: CAKI-1

Measured: GI50

COc1cc(CNc2nc3c(NC(C)=O)cc(C(F)(F)F)cc3nc2-c2ccccc2)cc(OC)c1OC
inactive: TK-10 > 100 µM | SNB-19 > 100 µM | NCI-H226 > 100 µM | HCT-116 > 100 µM | OVCAR-5 > 100 µM | HOP-62 > 100 µM | ACHN > 100 µM | UO-31 > 100 µM | SF-295 > 100 µM | MOLT-4 > 100 µM | SW-620 > 100 µM | LOX IMVI > 100 µM | OVCAR-4 89.5 µM | HCC 2998 > 100 µM | EKVX > 100 µM | RPMI-8226 > 100 µM | SK-MEL-2 > 100 µM | HOP-92 17.8 µM | SR > 100 µM | CAKI-1 > 100 µM
